Measured values taken from patent US20050244481A1, “Personal care products and methods for inhibiting the adherence of flora to skin” (Kimberly-Clark Worldwide, Inc., priority 2004, published 2005).

Key:
Format in all cases: cell-based
[1] = test system: Pseudomonas aeruginosa (ATCC # 27853); test: Inhibition of P. aeruginosa attachment to VITRO-SKIN synthetic skin substrate (Example 1, AlamarBlue); conditions: 3 h, RFU at 120 min, n = 5
Experimental: Two days prior to the test a bacterial culture was started by inoculating 10 ml Luria-Bertani (LB) (Sigma-Aldrich, St. Louis, Mo.) with one frozen bead of Pseudomonas aeruginosa (ATCC # 27853), and incubating the culture overnight at 37° C. with agitation at 125 rpm.
One day prior to the test a 100 ml LB culture was inoculated with 100 μl of the overnight culture and grown overnight at 37° C. with agitation at 125 rpm. VITRO-SKIN® synthetic skin substrate (N19, IMS, Milford, Conn.) was cut with a #2 size boring tool and placed into the wells of a 96 well tissue culture plate (Costar #3596, Corning Inc., Corning, NY). The plates were kept in a humidity chamber overnight until use to prevent dehydration of the tissues.
The day of the test, the optical density at 650 nm (OD) of the overnight culture was measured using a Spectramax spectrophotometer (Molecular Devices, Sunnyvale, Calif.). The culture was centrifuged at 4,500×g for 10 minutes at 4° C. (J-251 centrifuge, Beckman, Fullerton, Calif.) to pellet the bacteria. The bacteria were resuspended in phosphate buffered saline (PBS) to give a concentration of 2×10^10 cells/ml (1 OD equals 1×10^9 cells/ml).
A 20% (w/v) solution of each inulin source (Chicory root, Dahlia tuber from Sigma-Aldrich, St. Louis, Mo.) was prepared by mixing 0.3 g inulin with PBS (Invitrogen, Carlsbad, Calif.) to a final volume of 1.5 ml. Tween 20 (Sigma-Aldrich, St. Louis, Mo.) was included as a positive control, and a 4% (v/v) stock was prepared by mixing 40 μl of Tween 20 to 960 μl PBS. The Tween 20 stock was diluted to prepare a 2% (v/v) solution of Tween 20 by mixing 800 μl of the 4% solution and 800 μl of PBS. A two fold dilution series was prepared for each inulin source as follows: • 10%: 800 μl of the 20% solution plus 800 μl of PBS • 5%: 800 μl of the 10% solution plus 800 μl of PBS • 2.5%: 800 μl of the 5% solution plus 800 μl of PBS • 1.25% 800 μl of the 2.5% solution plus 800 μl of PBS.
All tests were run five times (n=5).
For the applied dose, 50 μl of each inulin dilution, Tween 20 alone, or PBS alone was added to the VITRO-SKIN® discs followed immediately by 50 μl of either the bacteria cells or PBS. Samples containing 50 μl inulin dilutions and 50 μl PBS served as a background controls for the inulin samples. Samples containing 50 μl Tween 20 and 50 μl PBS served as background controls for the Tween 20 samples. Background controls for the PBS were 100 μl PBS. The plates were gently shaken at room temperature for three hours. The tissues were washed three times with 250 μl of PBS, and transferred to an opaque white 96 well plate (Costar # 3922). 200 μl of AlamarBlue™ (Trek Diagnostic Systems, Cleveland, Ohio) in LB (20 μl AlamarBlue™+180 μl LB per well) was added to each well. AlamarBlue™ conversion was monitored every 15 minutes in a microfluorometer (Fluoroskan Ascent, Thermo-Labsystems, Beverly, Mass.) for 120 minutes with an excitation of 544 nm and emission of 590 nm. In between readings the plates were covered and incubated at 37° C.
Results are expressed as percent bacteria adhered to the tissue relative to the PBS control. The percentage is based on the number of cells that adhered to the skin in the inulin-containing (or Tween 20-containing control) samples as compared to the number of cells that adhered to the skin in the PBS control (i.e. PBS plus bacteria cells), as determined by the AlamarBlue® levels (relative fluorescence units (RFU)) at 120 minutes. The percent adherence was calculated by the formula: (RFU of the sample−RFU of appropriate background control)/(average of the RFU of the PBS treatment−average RFU of PBS background control)*100.
The results for the five wells for each dilution step were averaged, and the percent attached as compared to the PBS control treatment was calculated.

Pseudomonas aeruginosa [2] = test: Inhibition of P. aeruginosa attachment to VITRO-SKIN synthetic skin substrate (Example 2, AlamarBlue); conditions: for % Attached as Compared to PBS Treatment: 3 h, RFU at 60 min, n = 3
Experimental: (§1) Two days prior to the test a bacterial culture was started by inoculating 10 ml of Luria-Bertani (LB) medium with one frozen bead containing Pseudomonas aeruginosa (Dr. G. O'Toole, Dept. Microbiol. Dartmouth Medical School, Hanover, N.H.), and incubating the culture overnight at 37° C. with agitation at 125 rpm.
(§2) One day prior to the test a 100 ml LB culture was inoculated with 100 μl of the overnight culture and grown overnight at 37° C. with agitation at 125 rpm.
(§3) The day of the test the optical density (OD) of the overnight culture was measured at 650 nm using a Spectramax spectrophotometer (Molecular Devices, Sunnyvale, Calif.). The culture was centrifuged at 4,500×g for 10 minutes at 4° C. to pellet the bacteria. The bacteria were resuspended in phosphate buffered saline (PBS) to give a concentration of 2×10^10 cells/ml (1 OD equals 1×10^9 cells/ml). […]
(§4) The tissues were treated with 50 μl of inulin, Tween 20 alone, or PBS alone followed immediately by 50 μl of either the bacteria cells or PBS. […] AlamarBlue™ conversion was monitored kinetically in a microfluorometer (Fluoroskan Ascent, Thermo-Labsystems, Beverly, Mass.) for 60 minutes at 37° C., with an excitation of 544 nm and emission of 590 nm.
(§5) Results are expressed as percent bacteria adhered to the tissue relative to the PBS control. The percentage is based on the number of cells that adhered to the skin in the inulin-containing (or Tween 20-containing control) samples as compared to the number of cells that adhered to the skin in the PBS control (i.e. PBS plus bacteria cells), as determined by the AlamarBlue® levels (RFU) at 60 minutes. The percent adherence was calculated by the formula: (RFU of the sample−RFU of appropriate background control)/(average of the RFU of the PBS treatment−average RFU of PBS background control)*100.
(§6) The results for the three wells comprising each dilution were averaged, and the percent attached as compared to the PBS control treatment was calculated.

Pseudomonas aeruginosa [3] = test: Inhibition of P. aeruginosa attachment to porcine skin (Example 2, AlamarBlue); conditions: for % Attached as Compared to PBS Treatment: 3 h, RFU at 60 min, n = 3
Experimental: as §1, §2, §3, §4, §5, §6

Pseudomonas aeruginosa [4] = test: Inhibition of P. aeruginosa attachment to EpiDerm skin culture (Example 3); conditions: for % Attached as Compared to PBS Treatment: 37° C., 3 h, n = 2
Experimental: The EpiDerm™ (MatTek, Ashland, Mass.) experiment was performed as outlined by the protocol supplied by the manufacturer for the EPI-200 EpiDerm™.
Two days prior to the test bacterial culture was started by inoculating 10 ml of Luria-Bertani broth (LB) with one to two well isolated colonies of Pseudomonas aeruginosa (Dr. G. O'Toole, Dept. Microbiol. Dartmouth Medical School, Hanover, N.H.) and incubating the culture overnight at 37° C. with agitation at 125 rpm.
One day prior to the test a 50 ml LB culture was inoculated with 50 μl of the overnight culture and grown overnight at 37° C. with agitation at 125 rpm. The optical density (at 650 nm) of the overnight culture was measured using a Spectramax spectrophotometer (molecular Devices, Sunnyvale, Calif.). The culture was centrifuged at 4,500×g for 10 minutes at 4° C. to pellet the bacteria. The bacteria were resuspended in phosphate buffered saline (PBS) to give a concentration of 2×10^10 cells/ml (1 OD equals 1×10^9 cells/ml).
A 20% (w/v) stock of inulin (Jerusalem Artichoke, Sigma Chemical St Louis Mo.) was prepared by mixing 0.20 g of inulin with a sufficient amount of PBS to yield a final volume of 1 ml. […]
For the applied dose, 50 μl of 20% inulin in PBS, 4% Tween 20 alone, or PBS alone was applied to the EpiDerm™ tissue followed immediately by 50 μl of either the bacteria cells or PBS. […] After three hours, the tissue was analyzed for the number of adhered bacteria.
To measure adherence of P. aeruginosa to the EPIDERM™ tissue, the liquid remaining on the tissue was first transferred to a fresh microcentrifuge tube. […] Fluorescence was monitored in a microfluorometer at an excitation of 485 nm and an emission of 510 nm.
Results are expressed as percent bacteria adhered to the tissue relative to the PBS control. […] The percent adherence was calculated by the formula: (RFU in bound fraction of the inulin or Tween 20 sample−average background RFU)/(average of the RFU in the bound fraction of the cells alone treatment−average background RFU)*100. […]

In the case of inulin [Dahlia tuber], the “% Attached as Compared to PBS Treatment” value ([1]; treatment concentration 1.25%) is reported as 86%, the “% Attached as Compared to PBS Treatment” value ([1]; treatment concentration 2.5%) is reported as 59% and the “% Attached as Compared to PBS Treatment” value ([1]; treatment concentration 5%) is reported as 48%. The “% Attached as Compared to PBS Treatment” value ([1]; treatment concentration 10%) was 29%.
With Tween 20 [reference compound] the “% Attached as Compared to PBS Treatment” value ([1]; treatment concentration 2%) was 50%, the “% Attached as Compared to PBS Treatment” value (Pseudomonas aeruginosa [2]; treatment concentration 2%) was 10% and the “% Attached as Compared to PBS Treatment” value (Pseudomonas aeruginosa [3]; treatment concentration 2%) was 70%. The “% Attached as Compared to PBS Treatment” value (Pseudomonas aeruginosa [4]; treatment concentration 2%) was 73%.
For inulin [Jerusalem Artichoke], the “effect on attachment of P. aeruginosa to VITRO-SKIN substrate (in words)” value (Pseudomonas aeruginosa [2]) was “inhibited attachment”, the “% Attached as Compared to PBS Treatment” value (Pseudomonas aeruginosa [2]; treatment concentration 10%) was 53% and the “effect on attachment of P. aeruginosa to porcine skin (in words)” value (Pseudomonas aeruginosa [3]) was “also occurred on porcine skin”. For the same substance, the “% Attached as Compared to PBS Treatment” value (Pseudomonas aeruginosa [3]; treatment concentration 10%) was 25%, the “effect on attachment of P. aeruginosa to EpiDerm (in words)” value (Pseudomonas aeruginosa [4]) was “inhibited attachment” and the “% Attached as Compared to PBS Treatment” value (Pseudomonas aeruginosa [4]; treatment concentration 10%) was 57%.
For inulin [Chicory root], the “% Attached as Compared to PBS Treatment” value ([1]; treatment concentration 1.25%) was 92%, the “% Attached as Compared to PBS Treatment” value ([1]; treatment concentration 2.5%) was 60% and the “% Attached as Compared to PBS Treatment” value ([1]; treatment concentration 5%) was 45%. The “% Attached as Compared to PBS Treatment” value ([1]; treatment concentration 10%) was 17%.
